Reference: patent US6472348B1, “Pyridone derivatives and herbicides” (Kumiai Chemical Industry Co., Ltd., priority 1996, dated 2002)

Assays:
monochoria (Mo) = test: Test Example 1: herbicidal effects by paddy field soil treatment; assay type: in vivo; conditions: 100 g of the active ingredient per 10 ares, 21st day after the application, index 0-5 of Table 47;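 further: grade of growth control; 5 = at least 90%; 4 = 70 to 90%; 3 = 50 to 70%; 2 = 30 to 50%; 1 = 10 to 30%; 0 = under 10%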
How it was run: (§1)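 Flooded paddy-soil pots (3 cm water) sown after puddling/leveling; treatment 100 g a.i./10 ares; greenhouse culture; herbicidal effect rated visually on a scoring scale at 21 d post-application.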

bulrush (Sc) = test: as above; assay type: in vivo; conditions: 100 g of the active ingredient per 10 ares, 21st day after the application, index 0-5 of Table 47;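 further: grade of growth control; 5 = at least 90%; 4 = 70 to 90%; 3 = 50 to 70%; 2 = 30 to 50%; 1 = 10 to 30%; 0 = under 10%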
How it was run: as §1

barnyardgrass (Ec) [1] = test: as above; assay type: in vivo; conditions: 100 g of the active ingredient per 10 ares, 21st day after the application, index 0-5 of Table 47
How it was run: as §1

slender amaranth (Am) [2] = test: Test Example 2: herbicidal effects by upland field soil treatment; assay type: in vivo; conditions: 100 g of the active ingredient per 10 ares, evaluated on the 21st day after application;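 further: grade of growth control; 5 = at least 90%; 4 = 70 to 90%; 3 = 50 to 70%; 2 = 30 to 50%; 1 = 10 to 30%; 0 = under 10%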
Source text: (§2) (Test on Herbicidal Effects by Upland Field Soil Treatment)

Digitaria ciliaris (Di) = test: as above; assay type: in vivo; conditions: 100 g of the active ingredient per 10 ares, evaluated on the 21st day after application;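 further: grade of growth control; 5 = at least 90%; 4 = 70 to 90%; 3 = 50 to 70%; 2 = 30 to 50%; 1 = 10 to 30%; 0 = under 10%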
Source text: as §2

rice flatsedge (Ci) [3] = test: as above; assay type: in vivo; conditions: 100 g of the active ingredient per 10 ares, evaluated on the 21st day after application
Source text: as §2

pale smartweed (Po) [4] = test: as above; assay type: in vivo; conditions: 100 g of the active ingredient per 10 ares, evaluated on the 21st day after application
Source text: as §2

[5] = test system: common lambsquarters (Ch); test: as above; assay type: in vivo; conditions: 100 g of the active ingredient per 10 ares, evaluated on the 21st day after application
Source text: as §2

barnyardgrass (Ec) [6] = test: as above; assay type: in vivo; conditions: 100 g of the active ingredient per 10 ares, evaluated on the 21st day after application
Source text: as §2

slender amaranth (Am) [7] = test: Test Example 11: crop plant selectivity by upland field foliage treatment (corn), herbicidal effects; assay type: in vivo; parameters: scale not given here; conditions: upland field foliage treatment (corn test), dose 1.6 g ai/10a, 14th day after treatment
How it was run: (§3)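 Corn and the weed species were sown together in sand-filled pots and grown in a greenhouse for 2 weeks before foliar treatment. Herbicidal effect was scored on day 14 after treatment against a graded standard scale, with corn phytotoxicity scored alongside.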

China jute (Ab) [8] = test: as above; assay type: in vivo; parameters: scale not given here; conditions: upland field foliage treatment (corn test), dose 1.6 g ai/10a, 14th day after treatment
How it was run: as §3

pale smartweed (Po) [9] = test: as above; assay type: in vivo; parameters: scale not given here; conditions: upland field foliage treatment (corn test), dose 1.6 g ai/10a, 14th day after treatment
How it was run: as §3

[10] = test system: common lambsquarters (Ch); test: as above; assay type: in vivo; parameters: scale not given here; conditions: upland field foliage treatment (corn test), dose 1.6 g ai/10a, 14th day after treatment
How it was run: as §3

corn (Ze) = test: Test Example 11: crop plant selectivity by upland field foliage treatment (corn), phytotoxicity; conditions: upland field foliage treatment, dose 1.6 g ai/10a, 14th day after treatment
How it was run: as §3

slender amaranth (Am) [11] = test: Test Example 3: herbicidal effects by upland field foliage treatment; assay type: in vivo; parameters: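 grade of growth control; 5 = at least 90%; 4 = 70 to 90%; 3 = 50 to 70%; 2 = 30 to 50%; 1 = 10 to 30%; 0 = under 10%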; conditions: 100 g active ingredient per 10 ares, evaluated 14th day after treatment
How it was run: (§4)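 Pot culture: sand, 120 cm^2 surface; seeds sown, soil-covered, greenhouse 2 weeks. Foliage treatment applied at that stage. Herbicidal effect rated by standard scale, day 14 post-treatment.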

Diaitaria ciliaris (Di) = test: as above; assay type: in vivo; parameters: scale not given here; conditions: 100 g active ingredient per 10 ares, evaluated 14th day after treatment
How it was run: as §4

rice flatsedge (Ci) [12] = test: as above; assay type: in vivo; parameters: scale not given here; conditions: 100 g active ingredient per 10 ares, evaluated 14th day after treatment
How it was run: as §4

pale smartweed (Po) [13] = test: as above; assay type: in vivo; parameters: scale not given here; conditions: 100 g active ingredient per 10 ares, evaluated 14th day after treatment
How it was run: as §4

[14] = test system: common lambsquarters (Ch); test: as above; assay type: in vivo; parameters: scale not given here; conditions: 100 g active ingredient per 10 ares, evaluated 14th day after treatment
How it was run: as §4

barnyardgrass (Ec) [15] = test: as above; assay type: in vivo; parameters: scale not given here; conditions: 100 g active ingredient per 10 ares, evaluated 14th day after treatment
How it was run: as §4

wheat (Tr) = test: Test Example 9: crop plant selectivity by upland field foliage treatment (wheat), phytotoxicity; conditions: dose 1.6 g ai/10a, 14th day after treatment
How it was run: (§5)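 Sand-filled pot, wheat + weeds co-sown; greenhouse 2 wk, then foliage treatment; greenhouse culture continued; visual scoring of weed control and crop injury at 14 d post-treatment per grading scale.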

slender amaranth (Am) [16] = test: Test Example 9: crop plant selectivity by upland field foliage treatment (wheat), herbicidal effects; assay type: in vivo; parameters: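 grade of growth control; 5 = at least 90%; 4 = 70 to 90%; 3 = 50 to 70%; 2 = 30 to 50%; 1 = 10 to 30%; 0 = under 10%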; conditions: dose 1.6 g ai/10a, 14th day after treatment
How it was run: as §5

China jute (Ab) [17] = test: as above; assay type: in vivo; parameters: scale not given here; conditions: dose 1.6 g ai/10a, 14th day after treatment
How it was run: as §5

pale smartweed (Po) [18] = test: as above; assay type: in vivo; parameters: scale not given here; conditions: dose 1.6 g ai/10a, 14th day after treatment
How it was run: as §5

[19] = test system: common lambsquarters (Ch); test: as above; assay type: in vivo; parameters: scale not given here; conditions: dose 1.6 g ai/10a, 14th day after treatment
How it was run: as §5

| Structure (SMILES) | Herbicidal effects Mo (monochoria (Mo)) | Herbicidal effects Sc (bulrush (Sc)) | Herbicidal effects Ec (barnyardgrass (Ec) [1]) | Herbicidal effects Am (slender amaranth (Am) [2]) | Herbicidal effects Di (Digitaria ciliaris (Di)) | Herbicidal effects Ci (rice flatsedge (Ci) [3]) | Herbicidal effects Po (pale smartweed (Po) [4]) | Herbicidal effects Ch [5] | Herbicidal effects Ec (barnyardgrass (Ec) [6]) | Herbicidal effects Am (slender amaranth (Am) [7]) | Herbicidal effects Ab (China jute (Ab) [8]) | Herbicidal effects Po (pale smartweed (Po) [9]) | Herbicidal effects Ch [10] | Phytotoxicity Ze (corn (Ze)) | melting point | other results |
| --- | --- | --- | --- | --- | --- | --- | --- | --- | --- | --- | --- | --- | --- | --- | --- | --- |
| Cn1c(C(F)(F)F)ccc(-c2c(F)cc(Cl)c3oc(C(=O)O)cc23)c1=O [Compound No. 4-26, 3-(2-carboxy-7-chloro-5-fluorobenzofuran-4-yl)-1-methyl-6-trifluoromethyl-2-(1H)-pyridone] | 5 | 5 | 5 | 5 | 5 | 5 | 5 | 5 | 5 | 5 | 5 | 5 | 5 | 1 | 233 to 235 °C | – |
| Cn1c(C(F)(F)F)ccc(-c2c(F)cc(Cl)c3oc(C(Br)Br)cc23)c1=O [Compound No. 4-27, 3-(7-chloro-2-dibromomethyl-5-fluorobenzofuran-4-yl)-1-methyl-6-trifluoromethyl-2-(1H)-pyridone] | 5 | 5 | 5 | 5 | 5 | 5 | 5 | 5 | 4 | 5 | 5 | 5 | 5 | 2 | 107 to 109 °C | Herbicidal effects Am (slender amaranth (Am) [11]): 5; Herbicidal effects Di (Diaitaria ciliaris (Di)): 5; Herbicidal effects Ci (rice flatsedge (Ci) [12]): 5; Herbicidal effects Po (pale smartweed (Po) [13]): 5; Herbicidal effects Ch [14]: 5; Herbicidal effects Ec (barnyardgrass (Ec) [15]): 4; Phytotoxicity Tr (wheat (Tr)): 2; Herbicidal effects Am (slender amaranth (Am) [16]): 5; Herbicidal effects Ab (China jute (Ab) [17]): 5; Herbicidal effects Po (pale smartweed (Po) [18]): 5; Herbicidal effects Ch [19]: 5 |
